Series [1] concerns the target T1, PRPS1 (Homo sapiens, UniProt P60891).
T1 construct: His-tagged, pET-28a, expressed in E. coli BL21, Ni-Sepharose purified
T1 sequence (P60891 2-318): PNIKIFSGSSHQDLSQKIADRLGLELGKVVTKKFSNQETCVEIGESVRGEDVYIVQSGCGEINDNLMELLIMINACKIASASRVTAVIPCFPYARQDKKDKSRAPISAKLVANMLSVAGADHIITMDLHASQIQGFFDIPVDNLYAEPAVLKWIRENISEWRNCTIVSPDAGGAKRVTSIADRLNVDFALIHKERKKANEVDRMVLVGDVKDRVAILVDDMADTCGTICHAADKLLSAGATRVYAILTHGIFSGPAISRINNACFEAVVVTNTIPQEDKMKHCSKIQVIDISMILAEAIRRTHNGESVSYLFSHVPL
The experiment in a line: biochemical. Also on record: PRPS1/2 activity by ATP consumption, Kinase-Glo luminescence.

In series [2] the target is T2, PRPS2 (Homo sapiens, UniProt P11908).
T2 construct: His-tagged, pET-28a, expressed in E. coli BL21, Ni-Sepharose purified; the AlphaFold id for docking (AF-P60891-F1) is that of PRPS1
T2 sequence (P11908 2-318): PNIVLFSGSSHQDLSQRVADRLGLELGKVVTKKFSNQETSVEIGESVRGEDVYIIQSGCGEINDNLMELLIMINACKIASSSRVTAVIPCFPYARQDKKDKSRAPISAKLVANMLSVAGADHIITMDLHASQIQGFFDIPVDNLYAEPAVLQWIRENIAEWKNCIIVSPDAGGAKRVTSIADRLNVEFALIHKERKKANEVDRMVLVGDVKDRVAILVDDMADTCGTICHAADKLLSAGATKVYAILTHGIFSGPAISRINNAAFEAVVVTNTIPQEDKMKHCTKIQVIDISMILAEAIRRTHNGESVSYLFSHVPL
Put plainly: biochemical. Details: PRPS1/2 activity by ATP consumption, Kinase-Glo luminescence.

Series [3] has as its target T1, PRPS1. Put plainly: ATP consumption, Kinase-Glo. The format is biochemical. To be noted: 300 µM ATP, 300 µM R-5-P, 5 mM MgCl2, 5 mM Na3PO4, pH 7.5, 37 °C; allosteric effector.
The target of series [4] is T2, PRPS2. The experiment in a line: ATP consumption, Kinase-Glo. The format is biochemical. The following applies: 300 µM ATP, 300 µM R-5-P, 5 mM MgCl2, 5 mM Na3PO4, pH 7.5, 37 °C; allosteric effector. Background: In Kinase-Glo more light means more ATP remaining.
Another series deals with T3, HeLa Tet-on EcSTH.
T3 construct: HeLa with inducible Tet-on EcSTH, not induced
Put plainly: cells. To be noted: Homo sapiens, 48 h, Dox-, read-out: IC50 menadione. Details: Sensitivity of HeLa cells to menadione, proliferation after 48 h. On the procedure:
From top to bottom: **P < 0.0001, **P < 0.0001, **P < 0.0001, two-way ANOVA. d Effects of EGFP, EcSTH, LbNOX, or EcSTH-LbNOX expression on colony formation in HeLa cells cultured with Dox, as indicated, for 10 days (n = 3 biologically independent samples). From left to right: *P = 0.013, **P = 0.0001, **P = 6.58e-07, two-tailed Student’s t-tests. e The in vivo tumor growth of HeLa cells expressing inducible Tet-on EcSTH or EcSTH-LbNOX (n = 5 biologically independent animals). 2 mg/mL Dox was added in drinking water on day 10 and updated every two days. **P < 0.0001, two-way ANOVA. f Effects of α-KB treatment on proliferation of HeLa^Tet-on EcSTH cells. Cells were counted after treatment with Dox (1 µg/mL) and α-KB (1 or 2 mM) for 48 h (n = 4 biologically independent samples). From left to right: **P = 2.44e-06, **P = 1.85e-06, two-tailed Student’s t-tests. g Effects of inhibitors on proliferation of HeLa^Tet-on EcSTH cells. Cells were pretreated with the indicated inhibitors for 2 h, and cells were counted after treatment with Dox (1 µg/mL) for 48 h (n = 3 biologically independent samples). z-VAD (z-VAD-FMK, 20 µM), NSA (necrosulfonamide, 10 µM), Ferr-1 (Ferrostain-1, 5 µM). […] Cell apoptosis was measured by Flow cytometry after treatment with Dox (1 µg/mL) and α-KB (2 mM) for 24 h (n = 3 biologically independent samples). […]

Another series deals with T4, HeLa Tet-on EcSTH-LbNOX.
T4 construct: HeLa with inducible Tet-on EcSTH-LbNOX, not induced
The experiment in a line: cells. To be noted: Homo sapiens, 48 h, Dox-, read-out: IC50 menadione. Details: Sensitivity of HeLa cells to menadione, proliferation after 48 h.

Series [5] has as its target T2, PRPS2. The experiment in a line: SPR (Biacore T200), His-PRPS2 immobilized on CM5 chip. The following applies: read-out: dissociation constant. The format is binding. Background: Surface plasmon resonance follows binding to a sensor surface in real time, without labels.
In the next series the test system is T5, EcSTH-LbNOX.
T5 construct: gene sthA; single-chain fusion EcSTH-Flag-LbNOX, three tandem Flag peptides as linker, expressed in HeLa cells, anti-Flag M2 purified; with NADH oxidase (water-forming)
Put plainly: thio-NAD+ reduction at […] nm / NADPH depletion at […] nm. It is filed as biochemical, Escherichia coli. To be noted: 50 mM Tris-HCl pH 7.5, 10 μM FAD, 35 °C, EcSTH site.

Substrate in series [6]: NC(=S)c1ccc[n+]([C@@H]2O[C@H](COP(=O)(O)OP(=O)(O)OC[C@H]3O[C@@H](n4cnc5c(N)ncnc54)[C@H](O)[C@@H]3O)[C@@H](O)[C@H]2O)c1
Put plainly: purified protein. The following applies: 400 µM NADPH, 50 mM Tris-HCl pH 7.5, 10 μM FAD, 35 °C. It is filed as biochemical, Escherichia coli.

Substrate in series [7]: NC(=O)C1=CN([C@@H]2O[C@H](COP(=O)(O)OP(=O)(O)OC[C@H]3O[C@@H](n4cnc5c(N)ncnc54)[C@H](OP(=O)(O)O)[C@@H]3O)[C@@H](O)[C@H]2O)C=CC1
Put plainly: purified protein. The following applies: 400 µM thio-NAD+, 50 mM Tris-HCl pH 7.5, 10 μM FAD, 35 °C. It is filed as biochemical, Escherichia coli.

Substrate in series [8]: NC(=O)C1=CN([C@@H]2O[C@H](COP(=O)(O)OP(=O)(O)OC[C@H]3O[C@@H](n4cnc5c(N)ncnc54)[C@H](O)[C@@H]3O)[C@@H](O)[C@H]2O)C=CC1
Put plainly: purified protein. To be noted: 50 mM Tris-HCl pH 7.5, 10 μM FAD, 35 °C.

Like-named read-outs stand apart in the source and are kept apart here.

`Nc1ncnc2c1ncn2[C@@H]1O[C@H](COP(=O)(O)OP(=O)(O)O)[C@@H](O)[C@H]1O` [ADP]: the IC50 is 41.3 µM at PRPS1 [1] (read-out: IC50 of ADP (PRPS1)) and 77.4 µM at PRPS2 [2] (read-out: IC50 of ADP (PRPS2)).

Take `Nc1nc2c(ncn2[C@@H]2O[C@H](COP(=O)(O)OP(=O)(O)O)[C@@H](O)[C@H]2O)c(=O)[nH]1` [GDP]: the “ATP consumption, Kinase-Glo” value at PRPS1 [3] is “NADH and NAD^+ exerted no effect on the suppression of PRPS1 by ADP or GDP”; at PRPS2 [4], “protected PRPS2 against inhibition by ADP, but not against that by GDP”. For the same molecule, the IC50 is 171 µM on PRPS1 [1] (read-out: IC50 of GDP (PRPS1)) and 251 µM on PRPS2 [2] (read-out: IC50 of GDP (PRPS2)).

Take `CC1=CC(=O)c2ccccc2C1=O` [Menadione]: the IC50 is 27.8 µM in the series with HeLa Tet-on EcSTH and 27.4 µM in the series on HeLa Tet-on EcSTH-LbNOX.

Regarding `NC(=O)C1=CN([C@@H]2O[C@H](COP(=O)(O)OP(=O)(O)OC[C@H]3O[C@@H](n4cnc5c(N)ncnc54)[C@H](O)[C@@H]3O)[C@@H](O)[C@H]2O)C=CC1` [NADH], at PRPS2 [5], the Kd stood at 118 µM.

As to `NC(=O)C1=CN([C@@H]2O[C@H](COP(=O)(O)OP(=O)(O)OC[C@H]3O[C@@H](n4cnc5c(N)ncnc54)[C@H](OP(=O)(O)O)[C@@H]3O)[C@@H](O)[C@H]2O)C=CC1` [NADPH], the Km in the series on EcSTH-LbNOX (400 µM thio-NAD+) came to 194 µM.

For the molecule `NC(=S)c1ccc[n+]([C@@H]2O[C@H](COP(=O)(O)OP(=O)(O)OC[C@H]3O[C@@H](n4cnc5c(N)ncnc54)[C@H](O)[C@@H]3O)[C@@H](O)[C@H]2O)c1` [thio-NAD^+], the Km with EcSTH-LbNOX (400 µM NADPH) came out at 272 µM.

B1: EcSTH (Escherichia coli K-12) (protein)
chain: PHSYDYDAIVIGSGPGGEGAAMGLVKQGARVAVIERYQNVGGGCTHWGTIPSKALRHAVSRIIEFNQNPLYSDHSRLLRSSFADILNHADNVINQQTRMRQGFYERNHCEILQGNARFVDEHTLALDCPDGSVETLTAEKFVIACGSRPYHPTDVDFTHPRIYDSDSILSMHHEPRHVLIYGAGVIGCEYASIFRGMDVKVDLINTRDRLLAFLDQEMSDSLSYHFWNSGVVIRHNEEYEKIEGCDDGVIMHLKSGKKLKADCLLYANGRTGNTDSLALQNIGLETDSRGQLKVNSMYQTAQPHVYAVGDVIGYPSLASAAYDQGRIAAQALVKGEATAHLIEDIPTGIYTIPEISSVGKTEQQLTAMKVPYEVGRAQFKHLARAQIVGMNVGTLKILFHRETKEILGIHCFGERAAEIIHIGQAIMEQKGGGNTIEYFVNTTFNYPTMAEAYRVAALNGLNRLF
notes: C-terminal Flag tag (EcSTH-Flag), human-codon cDNA, expressed in HeLa cells, anti-Flag M2 purified
As to B1, the Km in “purified protein [6]” is listed as 242.8 µM; in “purified protein [7]” it was 137.1 µM. Also, the kcat in “purified protein [6]” amounted to 82.73 s⁻¹; in “purified protein [7]” it was 81.73 s⁻¹.

B2: LbNOX (Levilactobacillus brevis ATCC 367) (protein)
chain: MKVTVVGCTHAGTFAIKQILAEHPDAEVTVYERNDVISFLSCGIALYLGGKVADPQGLFYSSPEELQKLGANVQMNHNVLAIDPDQKTVTVEDLTNHAQTTESYDKLVMTSGSWPIVPKIPGIDSDRVKLCKNWAHAQALIEDAKEAKRITVIGAGYIGAELAEAYSTTGHDVTLIDAMARVMPKYFDADFTDVIEQDYRDHGVQLALGETVESFTDSATGLTIKTDKNSYETDLAILCIGFRPNTDLLKGKVDMAPNGAIITDDYMRSSNPDIFAAGDSAAVHYNPTHQNAYIPLATNAVRQGILVGKNLVKPTVKYMGTQSSSGLALYDRTIVSTGLTLAAAKQQGLNAEQVIVEDNYRPEFMPSTEPVLMSLVFDPDTHRILGGALMSKYDVSQSANTLSVCIQNENTIDDLAMVDMLFQPNFDRPFNYLNILAQAAQAKVAQSVNA
Turning to B2, in the series “purified protein [8]”, the Km stood at 88.73 µM and the kcat came out at 836.55 s⁻¹.

The IC50 is the concentration at which inhibition is half-maximal. The Km is the substrate concentration at which the rate is half of its maximum. As a reminder, the kcat is the number of substrate molecules converted per active site and unit of time at saturation.

The record behind these values is publication PMC9672040, “Identification of purine biosynthesis as an NADH-sensing pathway to mediate energy stress” (Nature Communications, 2022).
